Reference: patent US20130287807A1, “COMPOUNDS FOR TREATING SYMPTOMS ASSOCIATED WITH PARKINSON'S DISEASE” (priority 2008, published 2013)
Square brackets hold non-standard residues; d marks the D form. Ends that are not written are not given here. Tle = CC(C)(C)[C@H](N)C(=O)O

Experiments:
[1] = tested on: monoclonal antibody MV-001; assay: In vitro binding assay (ELISA), BSA-coupled peptides, parental antibody MV-001; set-up: species or system C57/B16 mice; conditions: Table 1C; peptide-BSA on plate, compared to original epitope
Procedure: Peptides derived from Phage Display as well as variants thereof were coupled to BSA and bound to ELISA plates (1 μM; as indicated in the respective figures) and subsequently incubated with the monoclonal antibody that was used for the screening procedure to analyse binding capacity of identified peptides.
Legend to Table 1C: the binding capacity is coded by the following binding code: 1:X describes the dilution factor of the parental AB

[2] = tested on: monoclonal antibody (DAEFRH-peptide-specific); assay: Inhibition assay (ELISA): mimotope peptides compete with plate-bound original epitope DAEFRH for recognition by the monoclonal antibody; type: binding, Mice; set-up: key to inhibition (s/m/—): s: strong inhibition; m: moderate inhibition; —: -: no inhibition; conditions: for inhibition of binding of the monoclonal antibody to the original epitope: competition ELISA, plate-bound DAEFRH-C-BSA, text to FIGS. 2-9; for Inhibitory capacity of mimotopes: summary Tables 1 and 2 (Examples 2, 3); for inhibition (s/m/—): peptide lists of Example 4
Text: Mice are vaccinated with the 6mer peptide DAEFRH (natural N-terminal Aβ42 sequence) linked to the protein bovine serum albumin BSA (to make use of the hapten-carrier-effect), emulsified in CFA (first injection) and IFA (booster injections). DAEFRH-peptide-specific, antibody-producing hybridomas are detected by ELISA (DAEFRH-peptide-coated ELISA plates).
FIGS. 2 and 3 describe the results of inhibition assays performed with mimotope peptides included in and obtained from the 5 libraries (as described in WO 2004/062556). The mimotope peptides compete with the original epitope for recognition by the monoclonal antibody. Original epitope and mimotope peptides contain an additional C at the C-terminus for coupling to a protein carrier (if desired).
(§1) After blocking with PBS/BSA 1% (200 μl/well, 12 h, 4° C.), the plates are washed 3× times with PBS/Tween. Then, biotinylated monoclonal antibody (1:2000, 50 μl/well) and peptides (50 μl/well) at 50, 5, 0.5, 0.05, 0.005, and 0.0005 μg/ml are added for 20 min. at 37° C. The plates are washed 3× times with PBS/Tween and are incubated with horseradish peroxidase (HRP)-labeled streptavidin (100 μl/well, 30 min, RT). The plates are washed 5× times with PBS/Tween and are incubated with ABTS+H2O2(0.1% w/v, 10 to 45 min) and the reaction is stopped with citric acid followed by photometric evaluation (wavelength 405 nm).
as §1, with “different concentrations” for “50, 5, 0.5, 0.05, 0.005, and 0.0005 μg/ml”, “ABTS+H2O2 (0.1%” for “ABTS+H2O2(0.1%”
as §1, with “different concentrations” for “50, 5, 0.5, 0.05, 0.005, and 0.0005 μg/ml”

Row | Molecule | Binding Capacity [1] | inhibition of binding of the monoclonal antibody to the original epitope [2] | further results
1 | SNSEFRRC [p4743] | 3 (strong binding :>20000) |  | 
2 | APMYFPHC [p4717] | 2 (medium binding :4000-20000) |  | 
3 | SNFRHSVC [p4749] | 3 (strong binding :>20000) |  | 
4 | YREFFI (YREFFIC) [Peptide 3003] |  | not able to inhibit | Inhibitory capacity of mimotopes [2]: none
5 | C[C@H](NC(=O)[C@H](CC(=O)O)NC(=O)[C@H](CCCNC(=N)N)NC(=O)[C@H](Cc1ccccc1)NC(=O)[C@H](CCC(=O)O)NC(=O)[C@H](Cc1c[nH]c2ccccc12)NC(=O)[C@@H](N)CC(=O)O)C(=O)N[C@@H](CS)C(=O)O [Peptide 1241, DWEFRDA] |  | block epitope recognition | Inhibitory capacity of mimotopes [2]: strong
6 | SAEFRAT [Peptide 4016] |  | strongly block epitope recognition | inhibition (s/m/—) [2]: s
7 | NELRHSTC [p4701] | 3 (strong binding :>20000) |  | 
8 | QLFKHSPC [p4747] | 3 (strong binding :>20000) |  | 
9 | SAEFRTQ [Peptide 4015] |  | strongly block epitope recognition | inhibition (s/m/—) [2]: s
10 | GAEFRFT [Peptide 4014] |  | moderately inhibit | inhibition (s/m/—) [2]: m
11 | DKE(tBuGly)R (DKE[Tle]R) [Peptide 4061] |  | not inhibitory | inhibition (s/m/—) [2]: —
12 | SAGSFRHC [p4710] | 3 (strong binding :>20000) |  | 
13 | EDWFFWHC [p4709] | 1 (weak binding :<4000) |  | 
14 | VELRHSRC [p4704] | 2 (medium binding :4000-20000) |  | 
15 | SLMRHSSC [p4721] | 2 (medium binding :4000-20000) |  | 
16 | SAMRHSLC [p4732] | 2 (medium binding :4000-20000) |  | 
17 | LHIPFRHC [p4726] | 3 (strong binding :>20000) |  | 
18 | TGLMFKHC [p4736] | 2 (medium binding :4000-20000) |  | 
19 | GEMRHQPC [p4702] | 3 (strong binding :>20000) |  | 
20 | DTYFPRSC [p4703] | 2 (medium binding :4000-20000) |  | 
21 | MLPFRHGC [p4731] | 2 (medium binding :4000-20000) |  | 
22 | QPNLFYHC [p4713] | 1 (weak binding :<4000) |  | 

Row | Molecule | Binding Capacity [1] | inhibition of binding of the monoclonal antibody to the original epitope [2] | further results
23 | AEFMHSVC [p4739] | 2 (medium binding :4000-20000) |  | 
24 | DAEFRWP [Peptide 4011] |  | strongly block epitope recognition | inhibition (s/m/—) [2]: s
25 | DIGWRG (DIGWRGC) [Peptide 3011] |  | not inhibitory | Inhibitory capacity of mimotopes [2]: none
26 | DNEFRSP [Peptide 4012] |  | moderately inhibit | inhibition (s/m/—) [2]: s
27 | SWEFRNP [Peptide 4017] |  | strongly block epitope recognition | inhibition (s/m/—) [2]: s
28 | ATPLFRHC [p4723] | 3 (strong binding :>20000) |  | 
29 | SWFRNP [Peptide 4019] |  | not inhibitory | inhibition (s/m/—) [2]: —
30 | AEFSHWHC [p4737] | 2 (medium binding :4000-20000) |  | 
31 | LQFKHSTC [p4734] | 2 (medium binding :4000-20000) |  | 
32 | VPTSALA [Peptide 4037] |  | not inhibitory | inhibition (s/m/—) [2]: —
33 | KKELRI (KKELRIC) [Peptide 1234] |  | hardly inhibitory | Inhibitory capacity of mimotopes [2]: none
34 | SWEFRLY [Peptide 4018] |  | strongly block epitope recognition | inhibition (s/m/—) [2]: s
35 | QELKRYYC [p4724] | 1 (weak binding :<4000) |  | 
36 | TPLMFWHC [p4733] | 1 (weak binding :<4000) |  | 
37 | SSSFFPRC [p4708] | 2 (medium binding :4000-20000) |  | 
38 | QVMRHHAC [p4711] | 2 (medium binding :4000-20000) |  | 
39 | SQYFPRPC [p4729] | 2 (medium binding :4000-20000) |  | 
40 | WHWSWR (WHWSWRC) [Peptide 4004] |  | not able to inhibit | Inhibitory capacity of mimotopes [2]: none
41 | CC[C@H](C)[C@H](NC(=O)[C@H](CCCCN)NC(=O)[C@H](CC(C)C)NC(=O)[C@H](CCC(=O)O)NC(=O)[C@H](CCCNC(=N)N)NC(=O)[C@@H](N)CC(=O)O)C(=O)N[C@@H](CS)C(=O)O [Peptide 1237, DRELKI] |  | block epitope recognition | Inhibitory capacity of mimotopes [2]: weak
42 | TYFSHSLC [p4718] | 2 (medium binding :4000-20000) |  | 
43 | EFLRHTLC [p4722] | 3 (strong binding :>20000) |  | 
44 | DAEFRH (DAEFRHC) [Peptide 1737, reference compound] |  | can successfully compete | 

Row | Molecule | Binding Capacity [1] | inhibition of binding of the monoclonal antibody to the original epitope [2] | further results
45 | NSSELRHC [p4752] | 3 (strong binding :>20000) |  | 
46 | NELFKHFC [p4727] | 2 (medium binding :4000-20000) |  | 
47 | TSTEMWHC [p4754] | 1 (weak binding :<4000) |  | 
48 | THMEFRRC [p4745] | 3 (strong binding :>20000) |  | 
49 | AYFPHTSC [p4751] | 2 (medium binding :4000-20000) |  | 
50 | CC[C@H](C)[C@H](NC(=O)[C@H](CCCCN)NC(=O)[C@H](CC(C)C)NC(=O)[C@H](CCC(=O)O)NC(=O)[C@H](CCCCN)NC(=O)[C@@H](N)CC(=O)O)C(=O)N[C@@H](CS)C(=O)O [Peptide 1236, DKELKI] |  | block epitope recognition | Inhibitory capacity of mimotopes [2]: weak
51 | CC[C@H](C)[C@H](NC(=O)[C@H](CCCNC(=N)N)NC(=O)[C@H](CC(C)C)NC(=O)[C@H](CCC(=O)O)NC(=O)[C@H](CCCNC(=N)N)NC(=O)[C@@H](N)CC(=O)O)C(=O)N[C@@H](CS)C(=O)O [Peptide 1235, DRELRI] |  | block epitope recognition | Inhibitory capacity of mimotopes [2]: strong
52 | DISFRG (DISFRGC) [Peptide 3010] |  | not inhibitory | Inhibitory capacity of mimotopes [2]: none
53 | APIQFRHC [p4750] | 3 (strong binding :>20000) |  | 
54 | N=C(N)NCCC[C@H](NC(=O)[C@H](Cc1ccccc1)NC(=O)[C@H](CCC(=O)O)NC(=O)[C@H](Cc1ccccc1)NC(=O)[C@@H](N)CO)C(=O)NCC(=O)N[C@@H](CS)C(=O)O [Peptide 3009, SFEFRG] |  |  | Inhibitory capacity of mimotopes [2]: weak
55 | GSEFRDY [Peptide 4013] |  | moderately inhibit | inhibition (s/m/—) [2]: m
56 | IGFRHDSC [p4742] | 2 (medium binding :4000-20000) |  | 
57 | CC[C@H](C)[C@H](NC(=O)[C@H](CCCNC(=N)N)NC(=O)[C@H](CC(C)C)NC(=O)[C@H](CCC(=O)O)NC(=O)[C@H](CCCCN)NC(=O)[C@@H](N)CC(=O)O)C(=O)N[C@@H](CS)C(=O)O [Peptide 3001, DKELRI] |  | block epitope recognition | Inhibitory capacity of mimotopes [2]: strong
58 | HEPLFSHC [p4719] | 1 (weak binding :<4000) |  | 
59 | SELRHSTC [p4744] | 3 (strong binding :>20000) |  | 
60 | YSMRHDAC [p4705] | 2 (medium binding :4000-20000) |  | 
61 | SQSYFKHC [p4755] | 3 (strong binding :>20000) |  | 
62 | ATFRHSPC [p4716] | 2 (medium binding :4000-20000) |  | 
63 | ATFRHSTC [p4735] | 2 (medium binding :4000-20000) |  | 
64 | AANYFPRC [p4706] | 2 (medium binding :4000-20000) |  | 
65 | SEFSHSSC [p4712] | 3 (strong binding :>20000) |  | 
